Data published in ChEMBL document CHEMBL1201862, “PubChem BioAssay data set” (2004).
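Interpolation was linear, between the two tested concentrations surrounding the appropriate level; five concentrations were tested over 48 hours in 96-well plates. GI50 is the concentration that inhibits growth by half.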 The source made the active and inactive calls. No stated cut-off is given here; in the data, active = GI50 up to about 1.1 µM and inactive = higher.

How the values were obtained:
Test in all cases: NCI-60 cell line screen, 48 h
HCC 2998 = system: HCC 2998
HL-60 = system: HL-60
HOP-92 = system: HOP-92
HT-29 = system: HT-29
K562 = system: K562
Malme-3M = system: Malme-3M
NCI-H226 = system: NCI-H226
OVCAR-3 = system: OVCAR-3
OVCAR-4 = system: OVCAR-4
OVCAR-5 = system: OVCAR-5
OVCAR-8 = system: OVCAR-8
SF-295 = system: SF-295
SF-539 = system: SF-539
SK-MEL-28 = system: SK-MEL-28
SK-MEL-5 = system: SK-MEL-5
SK-OV-3 = system: SK-OV-3
SNB-75 = system: SNB-75
UO-31 = system: UO-31
M14 = system: M14
TK-10 = system: TK-10

Measured: GI50

CC1=C2C3OC(=O)C(C)C3CCC2(C)C=C/C1=N\c1ccccc1 (stereo not given)
inactive: HCC 2998 > 100 µM | HL-60 > 100 µM | HOP-92 > 100 µM | HT-29 > 100 µM | K562 > 100 µM | Malme-3M > 100 µM | NCI-H226 > 100 µM | OVCAR-3 > 100 µM | OVCAR-4 > 100 µM | OVCAR-5 > 100 µM | OVCAR-8 > 100 µM | SF-295 > 100 µM | SF-539 > 100 µM | SK-MEL-28 > 100 µM | SK-MEL-5 > 100 µM | SK-OV-3 > 100 µM | SNB-75 > 53.3 µM | UO-31 > 100 µM

CC1NC(=O)C(C)C(c2ccccc2)N(N=O)C1c1ccccc1 (stereo not given)
inactive: HCC 2998 52.4 µM | HL-60 22.9 µM | HOP-92 39.7 µM | HT-29 29.2 µM | K562 33 µM | Malme-3M > 100 µM | NCI-H226 > 100 µM | OVCAR-3 > 52.5 µM | OVCAR-4 31.3 µM | OVCAR-5 > 100 µM | OVCAR-8 > 100 µM | SF-295 > 34.7 µM | SF-539 > 100 µM | SK-MEL-28 > 100 µM | SK-MEL-5 > 71.3 µM | SK-OV-3 28.2 µM | SNB-75 > 38.3 µM | UO-31 > 92.5 µM

COc1cc2c(ccc3c4cc(OC)c(OC)cc4c[n+](C)c23)cc1O [FAGARONINE]
inactive: HCC 2998 34.4 µM | HL-60 48 µM | HOP-92 23.6 µM | HT-29 > 73.3 µM | K562 4.26 µM | Malme-3M 15.6 µM | NCI-H226 1.47 µM | OVCAR-3 4.72 µM | OVCAR-4 12.2 µM | OVCAR-5 24 µM | OVCAR-8 1.69 µM | SF-295 7.93 µM | SF-539 2.88 µM | SK-MEL-28 52.7 µM | SK-MEL-5 4.09 µM | SK-OV-3 21.6 µM | SNB-75 2.9 µM | UO-31 > 72.8 µM

ClCc1ccc2ccc3ccc(CCl)nc3c2n1
inactive: HCC 2998 4.11 µM | HL-60 1.8 µM | HOP-92 2.09 µM | HT-29 2.17 µM | K562 3.18 µM | Malme-3M 1.92 µM | NCI-H226 2.28 µM | OVCAR-3 1.94 µM | OVCAR-4 5.65 µM | OVCAR-5 2.85 µM | OVCAR-8 3.36 µM | SF-295 2.31 µM | SF-539 2.25 µM | SK-MEL-28 1.83 µM | SK-MEL-5 1.4 µM | SK-OV-3 8.89 µM | SNB-75 1.95 µM | UO-31 1.69 µM

CC[C@H](O)[C@H](C)C=C1SCCCS1
inactive: HCC 2998 > 100 µM | HL-60 34.8 µM | HOP-92 > 100 µM | HT-29 > 100 µM | K562 > 100 µM | M14 > 100 µM | Malme-3M > 100 µM | NCI-H226 > 100 µM | OVCAR-3 > 100 µM | OVCAR-4 > 100 µM | OVCAR-5 > 100 µM | OVCAR-8 > 100 µM | SF-295 > 100 µM | SK-MEL-28 > 100 µM | SK-MEL-5 > 100 µM | SK-OV-3 > 100 µM | SNB-75 > 100 µM | TK-10 > 100 µM | UO-31 61.8 µM

O=C1C=CC(=O)c2c(Cl)ccc(O)c21
inactive: HCC 2998 > 100 µM | HL-60 2.96 µM | HOP-92 2.75 µM | HT-29 21.6 µM | K562 3.48 µM | Malme-3M 18.7 µM | NCI-H226 > 91.2 µM | OVCAR-3 15.6 µM | OVCAR-4 18.5 µM | OVCAR-5 > 54.1 µM | OVCAR-8 20.4 µM | SF-295 > 42.3 µM | SF-539 > 42.3 µM | SK-MEL-28 18.8 µM | SK-MEL-5 17.7 µM | SK-OV-3 > 100 µM | SNB-75 28.5 µM | UO-31 > 100 µM

COc1ccc(CCn2cncn2)cc1
inactive: HCC 2998 > 100 µM | HL-60 > 100 µM | HOP-92 > 100 µM | HT-29 > 100 µM | K562 > 100 µM | M14 > 100 µM | NCI-H226 > 100 µM | OVCAR-3 > 100 µM | OVCAR-4 > 100 µM | OVCAR-5 > 100 µM | SF-295 > 100 µM | SF-539 > 100 µM | SK-MEL-28 > 100 µM | SK-MEL-5 > 100 µM | SK-OV-3 > 100 µM | SNB-75 > 100 µM | TK-10 > 100 µM | UO-31 > 100 µM

CC(=O)Nc1ccc(C(=O)NN2C(=O)C(Cl)/C2=C/c2ccco2)cc1 (stereo not given)
inactive: HCC 2998 > 100 µM | HL-60 > 100 µM | HOP-92 > 100 µM | HT-29 > 100 µM | K562 > 100 µM | Malme-3M > 100 µM | NCI-H226 > 100 µM | OVCAR-3 > 100 µM | OVCAR-5 > 100 µM | OVCAR-8 > 100 µM | SF-295 > 100 µM | SF-539 > 100 µM | SK-MEL-28 > 100 µM | SK-MEL-5 > 100 µM | SK-OV-3 > 100 µM | SNB-75 > 100 µM | TK-10 > 100 µM | UO-31 > 100 µM
